# Measurements reported in US10829481B2, “Benzimidazole derivatives as modulators of ROR-gamma” (Vitae Pharmaceuticals, LLC, priority 2016, dated 2020).
# pIC50, pKi: −log10 of the molar value.
# Tests used:
# [1] = target: recombinant RORγ Ligand Binding Domain (LBD) protein (Homo sapiens (Human), UniProt P51449); assay: Radio-Ligand RORγ Binding Assay (Assay 1); conditions: competition with 25-hydroxy [26,27-3H]-cholesterol, SPA
# Method in brief: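 His-GST-fused RORγ ligand-binding domain (24 nM solution) competed between compounds and tritiated 25-hydroxycholesterol (8.6 nM solution), read by SPA after brief rt incubations in pH 7.4 HEPES/glycerol/detergent buffer. Four-parameter curve fitting gave IC50 at inflection, converted to Ki using radioligand concentration and KD.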
# [2] = target: full-length RORγt in Jurkat cells (Homo sapiens (Human), UniProt P51449); assay: RORγt 5×RORE Assay in Jurkat Cells (Assay 2); type: cell-based; conditions: 5×RORE Nanoluc luciferase reporter
# Sequence of full-length RORγt in Jurkat cells (P51449 other isoform, or with tags, fused parts or gaps): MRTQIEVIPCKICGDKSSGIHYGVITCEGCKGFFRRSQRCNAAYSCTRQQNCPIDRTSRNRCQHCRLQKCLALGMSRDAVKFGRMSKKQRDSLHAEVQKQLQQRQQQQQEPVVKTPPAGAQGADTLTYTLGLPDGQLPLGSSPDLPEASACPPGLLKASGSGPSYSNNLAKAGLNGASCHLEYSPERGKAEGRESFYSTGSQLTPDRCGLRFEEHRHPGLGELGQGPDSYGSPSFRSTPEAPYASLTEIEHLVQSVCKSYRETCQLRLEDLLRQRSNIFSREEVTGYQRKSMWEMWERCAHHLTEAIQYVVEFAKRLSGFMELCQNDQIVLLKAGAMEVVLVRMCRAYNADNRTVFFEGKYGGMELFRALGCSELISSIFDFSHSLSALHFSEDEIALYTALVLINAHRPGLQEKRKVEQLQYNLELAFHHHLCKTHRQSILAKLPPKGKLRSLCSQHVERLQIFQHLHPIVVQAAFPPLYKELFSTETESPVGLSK
# Sequence of recombinant RORγ Ligand Binding Domain (LBD) protein (P51449 269-508): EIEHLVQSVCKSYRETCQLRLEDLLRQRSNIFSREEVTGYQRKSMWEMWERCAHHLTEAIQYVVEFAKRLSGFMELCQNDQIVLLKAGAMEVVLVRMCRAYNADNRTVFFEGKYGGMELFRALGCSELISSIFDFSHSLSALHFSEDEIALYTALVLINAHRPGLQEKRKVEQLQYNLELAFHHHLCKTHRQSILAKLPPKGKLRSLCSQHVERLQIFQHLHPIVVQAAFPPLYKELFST
Compound,pKi [1],pIC50 [2]
"CCS(=O)(=O)c1ccc(CNC(=O)c2ccc3c(c2)nc(C(F)(F)F)n3Cc2cccc3cnn(C)c23)cc1 [I-137, N-(4-(ethylsulfonyl)benzyl)-1-((1-methyl-1H-indazol-7-yl)methyl)-2-(trifluoromethyl)-1H-benzo[d]imidazole-5-carboxamide]",> 7.00,> 7.00
"CCS(=O)(=O)c1ccc(CNC(=O)c2ccc3c(c2)nc(C(F)(F)F)n3Cc2nc(C)cc(C(F)(F)F)n2)cc1 [I-138, N-(4-(ethylsulfonyl)benzyl)-1-((4-methyl-6-(trifluoromethyl)pyrimidin-2-yl)methyl)-2-(trifluoromethyl)-1H-benzo[d]imidazole-5-carboxamide]",> 7.00,6.00 to 7.00
"CCS(=O)(=O)c1ccc(CNC(=O)c2ccc3c(c2)nc(C(F)(F)F)n3Cc2cccc3cn(C)nc23)cc1 [I-139, N-(4-(ethylsulfonyl)benzyl)-1-((2-methyl-2H-indazol-7-yl)methyl)-2-(trifluoromethyl)-1H-benzo[d]imidazole-5-carboxamide]",> 7.00,> 7.00
"CCS(=O)(=O)c1ccc(CNC(=O)c2ccc3c(c2)nc(C(F)(F)F)n3Cc2cccc3c2cnn3C)cc1 [I-141, N-(4-(ethylsulfonyl)benzyl)-1-((1-methyl-1H-indazol-4-yl)methyl)-2-(trifluoromethyl)-1H-benzo[d]imidazole-5-carboxamide]",< 6.00,6.00 to 7.00
"CCS(=O)(=O)c1ccc(CNC(=O)c2ccc3c(c2)nc(C(F)(F)F)n3Cc2cccc3nn(C)cc23)cc1 [I-143, N-(4-(ethylsulfonyl)benzyl)-1-((2-methyl-2H-indazol-4-yl)methyl)-2-(trifluoromethyl)-1H-benzo[d]imidazole-5-carboxamide]",> 7.00,6.00 to 7.00
"CCS(=O)(=O)c1ccc(CNC(=O)c2ccc3c(c2)nc(C(F)(F)F)n3Cc2cccc3ocnc23)cc1 [I-147, 1-(benzo[d]oxazol-4-ylmethyl)-N-(4-(ethylsulfonyl)benzyl)-2-(trifluoromethyl)-1H-benzo[d]imidazole-5-carboxamide]",> 7.00,6.00 to 7.00
"CCS(=O)(=O)c1ccc(CNC(=O)c2ccc3c(c2)nc(C2CC2)n3Cc2cccc3c2OCCO3)cc1 [I-148, 2-cyclopropyl-1-((2,3-dihydrobenzo[b][1,4]dioxin-5-yl)methyl)-N-(4-(ethylsulfonyl)benzyl)-1H-benzo[d]imidazole-5-carboxamide]",> 7.00,< 6.00
"CCS(=O)(=O)c1ccc(CNC(=O)c2ccc3c(c2)nc(C2CC2)n3[C@H](C)c2cccc3c2OC(F)(F)O3)cc1 [I-149, (R)-2-cyclopropyl-1-(1-(2,2-difluorobenzo[d][1,3]dioxol-4-yl)ethyl)-N-(4-(ethylsulfonyl)benzyl)-1H-benzo[d]imidazole-5-carboxamide]",> 7.00,> 7.00
"CCS(=O)(=O)c1ccc(CNC(=O)c2ccc3c(c2)nc(C)n3Cc2ccccc2)cc1 [I-150, 1-benzyl-N-(4-(ethylsulfonyl)benzyl)-2-methyl-1H-benzo[d]imidazole-5-carboxamide]",6.00 to 7.00,< 6.00
"CCS(=O)(=O)c1ccc(CNC(=O)c2ccc3c(c2)nc(C(F)(F)F)n3Cc2cccc3nonc23)cc1 [I-151, 1-(benzo[c][1,2,5]oxadiazol-4-ylmethyl)-N-(4-(ethylsulfonyl)benzyl)-2-(trifluoromethyl)-1H-benzo[d]imidazole-5-carboxamide]",> 7.00,> 7.00
"CCS(=O)(=O)c1ccc(CNC(=O)c2ccc3c(c2)nc(C(F)(F)F)n3Cc2cccc3ncoc23)cc1 [I-152, 1-(benzo[d]oxazol-7-ylmethyl)-N-(4-(ethylsulfonyl)benzyl)-2-(trifluoromethyl)-1H-benzo[d]imidazole-5-carboxamide]",> 7.00,> 7.00
"CCS(=O)(=O)c1ccc(CNC(=O)c2ccc3c(c2)nc(C2CC2)n3Cc2cc(O)cc(OC(F)(F)F)c2)cc1 [I-153, 2-cyclopropyl-N-(4-(ethylsulfonyl)benzyl)-1-(3-hydroxy-5-(trifluoromethoxy)benzyl)-1H-benzo[d]imidazole-5-carboxamide]",> 7.00,> 7.00
"CCS(=O)(=O)c1ccc(CNC(=O)c2ccc3c(c2)nc(C2CC2)n3Cc2cccc(O)c2O)cc1 [I-154, 2-cyclopropyl-1-(2,3-dihydroxybenzyl)-N-(4-(ethylsulfonyl)benzyl)-1H-benzo[d]imidazole-5-carboxamide]",> 7.00,< 6.00
"CCS(=O)(=O)c1ccc(CNC(=O)c2ccc3c(c2)nc(C(F)(F)F)n3CC2CCN(c3ncc(F)cn3)CC2)cc1 [I-158, N-(4-(ethylsulfonyl)benzyl)-1-((1-(5-fluoropyrimidin-2-yl)piperidin-4-yl)methyl)-2-(trifluoromethyl)-1H-benzo[d]imidazole-5-carboxamide]",> 7.00,< 6.00
(R)-1-(1-(3-cyanophenyl)ethyl)-N-(4-(ethylsulfonyl)benzyl)-2-(trifluoromethyl)-1H-benzo[d]imidazole-5-carboxamide [I-93.2],> 7.00,> 7.00

# The next lines start with the values.
pKi [1],pIC50 [2],Compound
> 7.00,> 7.00,"CCS(=O)(=O)c1ccc(CNC(=O)c2ccc3c(c2)nc(N(C)C)n3Cc2cccc3c2OC(F)(F)O3)cc1 [I-162, 1-((2,2-difluorobenzo[d][1,3]dioxol-4-yl)methyl)-2-(dimethylamino)-N-(4-(ethylsulfonyl)benzyl)-1H-benzo[d]imidazole-5-carboxamide]"
> 7.00,> 7.00,"O=C(NCC1CCN(S(=O)(=O)CCO)CC1)c1ccc2c(c1)nc(C(F)(F)F)n2Cc1cccc2c1OC(F)(F)O2 [I-163, 1-((2,2-difluorobenzo[d][1,3]dioxol-4-yl)methyl)-N-((1-((2-hydroxyethyl)sulfonyl)piperidin-4-yl)methyl)-2-(trifluoromethyl)-1H-benzo[d]imidazole-5-carboxamide]"
> 7.00,< 6.00,"CCS(=O)(=O)c1ccc([C@H](CC(=O)O)NC(=O)c2ccc3c(c2)nc(C(F)(F)F)n3Cc2cccc3c2OC(F)(F)O3)cc1 [I-165, (S)-3-(1-((2,2-difluorobenzo[d][1,3]dioxol-4-yl)methyl)-2-(trifluoromethyl)-1H-benzo[d]imidazole-5-carboxamido)-3-(4-(ethylsulfonyl)phenyl)propanoic acid]"
> 7.00,< 6.00,"CCS(=O)(=O)c1ccc([C@H](COCC(=O)O)NC(=O)c2ccc3c(c2)nc(C(F)(F)F)n3Cc2cccc3c2OC(F)(F)O3)cc1 [I-166, (R)-2-(2-(1-((2,2-difluorobenzo[d][1,3]dioxol-4-yl)methyl)-2-(trifluoromethyl)-1H-benzo[d]imidazole-5-carboxamido)-2-(4-(ethylsulfonyl)phenyl)ethoxy)acetic acid]"
> 7.00,> 7.00,"CCS(=O)(=O)c1ccc([C@H](CC(=O)NC)NC(=O)c2ccc3c(c2)nc(C(F)(F)F)n3Cc2cccc3c2OC(F)(F)O3)cc1 [I-167, (S)-1-((2,2-difluorobenzo[d][1,3]dioxol-4-yl)methyl)-N-(1-(4-(ethylsulfonyl)phenyl)-3-(methylamino)-3-oxopropyl)-2-(trifluoromethyl)-1H-benzo[d]imidazole-5-carboxamide]"
> 7.00,> 7.00,"CCS(=O)(=O)c1ccc([C@H](CC(N)=O)NC(=O)c2ccc3c(c2)nc(C(F)(F)F)n3Cc2cccc3c2OC(F)(F)O3)cc1 [I-168, (S)-N-(3-amino-1-(4-(ethylsulfonyl)phenyl)-3-oxopropyl)-1-((2,2-difluorobenzo[d][1,3]dioxol-4-yl)methyl)-2-(trifluoromethyl)-1H-benzo[d]imidazole-5-carboxamide]"
> 7.00,> 7.00,"CNC(=O)CS(=O)(=O)c1ccc(CNC(=O)c2ccc3c(c2)nc(C(F)(F)F)n3Cc2cccc3c2OC(F)(F)O3)cc1 [I-169, 1-((2,2-difluorobenzo[d][1,3]dioxol-4-yl)methyl)-N-(4-((2-(methylamino)-2-oxoethyl)sulfonyl)benzyl)-2-(trifluoromethyl)-1H-benzo[d]imidazole-5-carboxamide]"
> 7.00,> 7.00,"CCS(=O)(=O)c1ccc(C(O)C(=O)Nc2ccc3c(c2)nc(C(F)(F)F)n3Cc2cccc3c2OC(F)(F)O3)cc1 (centres unmarked) [I-170, N-(1-((2,2-difluorobenzo[d][1,3]dioxol-4-yl)methyl)-2-(trifluoromethyl)-1H-benzo[d]imidazol-5-yl)-2-(4-(ethylsulfonyl)phenyl)-2-hydroxyacetamide]"
> 7.00,> 7.00,"CCS(=O)(=O)c1ccc(CNC(=O)c2ccc3c(c2)nc(C(F)(F)F)n3Cc2cccc3c2CCO3)cc1 [I-172, 1-((2,3-dihydrobenzofuran-4-yl)methyl)-N-(4-(ethylsulfonyl)benzyl)-2-(trifluoromethyl)-1H-benzo[d]imidazole-5-carboxamide]"
> 7.00,6.00 to 7.00,"CCS(=O)(=O)c1ccc(CNC(=O)c2ccc3c(c2)nc(C(=O)OC)n3Cc2cccc3c2OC(F)(F)O3)cc1 [I-173, methyl 1-((2,2-difluorobenzo[d][1,3]dioxol-4-yl)methyl)-5-((4-(ethylsulfonyl)benzyl)carbamoyl)-1H-benzo[d]imidazole-2-carboxylate]"
